Measurements as given in patent US20110263588A1, “TRICYCLIC COMPOUNDS AS GLUTAMATE RECEPTOR MODULATORS” (GLAXO GROUP LIMITED, priority 2008, published 2011).
Where two headings read alike, the source gives them in different places.

Molecular target: T1, human mGlu5 recombinant receptor (Homo sapiens, UniProt P41594)
T1 construct: expressed in transfected cells; host or cells: inducible CHO cell line stably expressing Aequorin (Euroscreen FAST); doxycycline-responsive promoter
Assay: mGluR5 calcium mobilization in inducible mGluR5 CHO cells (aequorin luminescence, antagonist mode)
Assay type: cell-based
Settings: antagonist activity against EC80 glutamate, inducible CHO cell line expressing human mGlu5 and Aequorin, read-out: IC50 (uM) Ca^++ flux
Source text: mGluR5 Calcium Mobilization in Inducible mGluR5 CHO Cells
To functionally measure mGluR5 calcium mobilization in response to agonists or antagonists, an inducible CHO cell line expressing the human mGlu5 recombinant receptor was used. This cell line also stably expressed Aequorin (Euroscreen FAST), a photoprotein that spontaneously couples with coelenterazine h when added exogenously in the cell media. The Aequorin-coelenterzine h complex undergoes a conformational change upon binding of calcium ions which results in the emission of blue light (wavelength 469 nm) that was measured using a Hamamatsu Functional Drug Screening System 6000.
mGluR5 expression was induced by a doxycycline responsive promoter by growing cells to mid-log phase for 18 hours in media without antibiotics and supplemented with doxycycline (600 ng/mL). Cells were detached from the plate by gentle flushing using PBS-EDTA (5 mM EDTA) and centrifuged for collection and resuspended in “assay buffer” (HBSS, 2.1 mM CaCl2, 2 ug/mL glutamate-pyruvate transaminase, 4 mM MEM sodium pyruvate, and 0.1% protease free BSA). Cells were incubated with coelenterazine h (Molecular Probes) at room temperature for 4 hours before testing.
To measure mGluR5 antagonist activity, cell suspensions containing test compound were mixed with EC80 glutamate and emission of light was recorded. Reference and test compounds were tested at several concentrations in duplicate to obtain dose response curves using the Prism GraphPad software (GraphPad Software Inc.). IC50 values were calculated from the dose response curves using the equation:
Y=Bottom+(Top−Bottom)/(1+10̂((LogEC50−X)*HillSlope)).

T1 sequence (P41594 21-1212): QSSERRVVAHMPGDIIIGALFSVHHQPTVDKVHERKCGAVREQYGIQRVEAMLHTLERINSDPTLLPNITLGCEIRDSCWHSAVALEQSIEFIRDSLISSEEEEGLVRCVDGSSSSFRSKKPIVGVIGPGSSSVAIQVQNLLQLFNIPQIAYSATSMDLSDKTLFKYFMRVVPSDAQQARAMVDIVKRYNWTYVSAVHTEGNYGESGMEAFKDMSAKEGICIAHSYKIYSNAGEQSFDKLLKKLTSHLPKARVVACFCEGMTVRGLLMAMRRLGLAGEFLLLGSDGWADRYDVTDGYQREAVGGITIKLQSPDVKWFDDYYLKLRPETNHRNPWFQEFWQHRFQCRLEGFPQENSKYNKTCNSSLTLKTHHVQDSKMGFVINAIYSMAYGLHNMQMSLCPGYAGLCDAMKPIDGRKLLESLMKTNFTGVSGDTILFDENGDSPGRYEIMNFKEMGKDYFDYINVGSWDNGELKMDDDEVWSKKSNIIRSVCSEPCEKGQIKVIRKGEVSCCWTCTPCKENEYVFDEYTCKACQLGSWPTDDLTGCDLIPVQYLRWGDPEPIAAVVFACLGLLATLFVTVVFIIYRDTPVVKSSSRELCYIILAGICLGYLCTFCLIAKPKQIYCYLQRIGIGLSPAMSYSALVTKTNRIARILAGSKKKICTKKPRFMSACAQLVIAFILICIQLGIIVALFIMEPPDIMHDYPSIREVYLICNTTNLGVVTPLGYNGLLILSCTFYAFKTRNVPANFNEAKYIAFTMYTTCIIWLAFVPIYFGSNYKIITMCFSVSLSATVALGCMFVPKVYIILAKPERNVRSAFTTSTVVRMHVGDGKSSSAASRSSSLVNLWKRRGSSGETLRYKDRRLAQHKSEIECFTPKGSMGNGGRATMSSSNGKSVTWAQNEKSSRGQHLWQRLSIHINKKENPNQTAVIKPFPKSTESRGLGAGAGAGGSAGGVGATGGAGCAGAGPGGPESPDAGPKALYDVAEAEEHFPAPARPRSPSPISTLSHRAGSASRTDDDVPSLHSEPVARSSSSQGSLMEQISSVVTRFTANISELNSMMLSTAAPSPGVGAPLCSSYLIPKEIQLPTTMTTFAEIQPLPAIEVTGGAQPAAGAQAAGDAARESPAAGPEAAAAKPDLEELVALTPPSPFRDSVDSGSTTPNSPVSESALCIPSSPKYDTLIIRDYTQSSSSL

Row | Compound | IC50 (Table 3) | IC50 (Table 2)
1 | Cn1nc(C(=O)NCc2cccc(Cl)c2)c2c1-c1ccccc1OC2 [N-(3-chlorobenzyl)-1-methyl-1,4-dihydrochromeno[4,3-c]pyrazole-3-carboxamide] | > 10 µM | –
2 | Cc1cccc(NC(=O)c2nn(C)c3c2CCc2cccnc2-3)n1 [Example 13, 1-Methyl-N-(6-methylpyridin-2-yl)-4,5-dihydro-1H-pyrazolo[4,3-h]quinoline-3-carboxamide] | – | < 1 µM
3 | Cc1cccc(NC(=O)c2c3c(nn2C)-c2ncccc2CCC3)n1 [Example 23, 4-Methyl-N-(6-methylpyridin-2-yl)-3,4,14-triazatricyclo[8.4.0.0̂{2,6}]tetradeca-1(14),2,5,10,12-pentaene-5-carboxamide] | – | > 10 µM
4 | Cn1nc(C(=O)Nc2cccc(Cl)c2)c2c1-c1cc(Cl)ccc1OC2 [Example 5, N-(3-Chlorophenyl)-8-chloro-1-methyl-1,4-dihydrochromeno[4,3-c]pyrazole-3-carboxamide] | – | > 10 µM
5 | Cc1cccc(NC(=O)c2nn(C(C)C)c3c2CCc2cccnc2-3)n1 [Example 15] | – | > 10 µM
6 | Cn1nc(C(=O)Nc2cccc(Cl)c2)c2c1-c1ccccc1CC2 [Example 14, N-(3-Chlorophenyl)-1-methyl-4,5-dihydro-1H-benzo[g]indazole-3-carboxamide] | – | < 1 µM
7 | Cn1nc(C(=O)Nc2ccccc2Cl)c2c1-c1ccccc1OC2 [N-(2-chlorophenyl)-1-methyl-1,4-dihydrochromeno[4,3-c]pyrazole-3-carboxamide] | 1 to 10 µM | –
8 | Cn1nc(C(=O)Nc2ccc(Cl)cc2)c2c1-c1ccccc1OC2 [N-(4-chlorophenyl)-1-methyl-1,4-dihydrochromeno[4,3-c]pyrazole-3-carboxamide] | > 10 µM | –
9 | O=C(Nc1cccc(Cl)c1)c1noc2c1CSc1ccccc1-2 [N-(3-chlorophenyl)-4H-thiochromeno[3,4-d]isoxazole-3-carboxamide] | < 1 µM | –
10 | Cn1nc2c(c1C1CCCN(C(=O)c3ccc(F)cc3)C1)CCc1ccccc1-2 (stereo not shown) [Example 24, (4-Fluorophenyl)(3-(2-methyl-4,5-dihydro-2H-benzo[g]indazol-3-yl)piperidin-1-yl)methanone] | – | > 10 µM
11 | Cn1nc(C(=O)Nc2cccc(Cl)c2)c2cnc3ccccc3c21 [Example 20, N-(3-Chlorophenyl)-1-methyl-1H-pyrazolo[4,3-c]quinoline-3-carboxamide] | – | < 1 µM
12 | Cc1cccc(NC(=O)c2n[nH]c3c2COc2ccccc2-3)n1 [Example 7, N-(6-Methylpyridin-2-yl)-1,4-dihydrochromeno[4,3-c]pyrazole-3-carboxamide] | – | > 10 µM
13 | Cn1nc(C(=O)Nc2ccc(F)c(Cl)c2)c2c1-c1ccccc1OC2 [N-(3-chloro-4-fluorophenyl)-1-methyl-1,4-dihydrochromeno[4,3-c]pyrazole-3-carboxamide] | > 10 µM | –
14 | COc1cccc(NC(=O)c2nn(C)c3c2COc2ccccc2-3)c1 [N-(3-methoxyphenyl)-1-methyl-1,4-dihydrochromeno[4,3-c]pyrazole-3-carboxamide] | > 10 µM | –
15 | Cn1nc(C(=O)N2CCOc3ccccc32)c2c1-c1ccccc1OC2 [Example 10, (2H-Benzo[b][1,4]oxazin-4(3H)-yl)(1-methyl-1,4-dihydrochromeno[4,3-c]pyrazol-3-yl)methanone] | – | > 10 µM
16 | Cn1nc(C(=O)Nc2cccc(Cl)c2)c2c1-c1ccsc1CC2 [N-(3-chlorophenyl)-1-methyl-4,5-dihydro-1H-thieno[2,3-g]indazole-3-carboxamide] | > 10 µM | –
17 | CN(C(=O)c1noc2c1COc1ccccc1-2)c1cccc(Cl)c1 [N-(3-chlorophenyl)-N-methyl-4H-chromeno[3,4-d]isoxazole-3-carboxamide] | > 10 µM | –
18 | Cn1nc(C2CCCN(C(=O)c3ccc(F)cc3)C2)c2c1-c1ccccc1CC2 (stereo not shown) [Example 25, (4-Fluorophenyl)(3-(1-methyl-4,5-dihydro-1H-benzo[g]indazol-3-yl)piperidin-1-yl)methanone] | – | > 10 µM
19 | Cc1cccc(NC(=O)c2nn(C)c3c2CCc2ccncc2-3)n1 [Example 17, 1-Methyl-N-(6-methylpyridin-2-yl)-4,5-dihydro-1H-pyrazolo[4,3-h]isoquinoline-3-carboxamide] | – | < 1 µM
20 | Cn1nc(C(=O)Nc2cc(Cl)ccn2)c2c1-c1ccccc1OC2 [Example 3, N-(4-Chloropyridin-2-yl)-1-methyl-1,4-dihydrochromeno[4,3-c]pyrazole-3-carboxamide] | – | 1 to 10 µM
21 | Cn1nc(C(=O)Nc2cc(C#N)ccn2)c2c1-c1ccccc1OC2 [Example 8, N-(4-Cyanopyridin-2-yl)-1-methyl-1,4-dihydrochromeno[4,3-c]pyrazole-3-carboxamide] | – | > 10 µM
22 | CCN(Cc1nn(C)c2c1COc1ccccc1-2)C(=O)c1ccc(Br)o1 [Example 11, 5-Bromo-N-ethyl-N-((1-methyl-1,4-dihydrochromeno[4,3-c]pyrazol-3-yl)methyl)furan-2-carboxamide] | – | > 10 µM
23 | O=C(Nc1cccnc1)c1n[nH]c2c1COc1ccccc1-2 [N-(pyridin-3-yl)-1,4-dihydrochromeno[4,3-c]pyrazole-3-carboxamide] | > 10 µM | –
24 | Cc1ccc2c(c1)-c1c(c(C(=O)Nc3cccc(Cl)c3)nn1C)CS2 [N-(3-chlorophenyl)-1,8-dimethyl-1,4-dihydrothiochromeno[4,3-c]pyrazole-3-carboxamide] | < 1 µM | –
25 | CC(=O)N1Cc2c(C(=O)Nc3cccc(Cl)c3)nn(C)c2-c2ccccc21 [Example 19] | – | < 1 µM
